The values that follow come from US5013850A, “4-ethyl and 4-ethenyl-5-hydroxy-2(5H)-furanones substituted on alpha carbon of the ethyl or ethenyl side chain with a long chain alkyl group and on the beta carbon with a polar group, as anti-inflammatory agents” (Allergan, Inc., priority 1990, dated 1991).

In general, IC50 refers to the point on the concentration scale where inhibition reaches its midpoint.

The target in one experiment is bee venom phospholipase A2 (Apis mellifera, UniProt P00630). The experiment can be described thus: biochemical. Particulars: read-out: IC50, Phospholipase A2 Assay (50% inhibition of bee venom phospholipase A2).
Sequence of bee venom phospholipase A2 (P00630 34-167 limits assumed): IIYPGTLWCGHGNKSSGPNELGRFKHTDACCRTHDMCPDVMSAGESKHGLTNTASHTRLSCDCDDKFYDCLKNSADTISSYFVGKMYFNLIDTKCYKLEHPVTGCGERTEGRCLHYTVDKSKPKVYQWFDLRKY
As for `CC(=CCCC1=CCC(C2=CC(=O)OC2O)OC1O)CCC1=C(C)CCCC1(C)C` (centres unmarked) [Compound 1], the half-maximal inhibitory concentration (IC50) stood at 0.03 µM.
Regarding `CCCCCCCCCCCCC(CC(=O)OCC)C1=CC(=O)OC1O` (centres unmarked) [Compound 7, 4-[1-(Ethoxycarbonylmethyl)tridecyl]-5-hydroxy-2(5H)-furanone], the IC50 was found to be 0.26 µM.
On to `CCCCCCCCCCCCC(CC(C)=O)C1=CC(=O)OC1O` (centres unmarked) [Compound 8, 4-[1-(2-oxopropyl)tridecyl]-5-hydroxy-2(5H)-furanone], for which the half-maximal inhibitory concentration (IC50) is 0.09 µM.
For `CCCCCCCCCCCCC(CC(=O)C(F)(F)F)C1=CC(=O)OC1O` (centres unmarked) [Compound 9, 4-[1-(3,3,3-Trifluoro-2-oxo)propyl]tridecyl-5-hydroxy-2(5H)-furanone], the 50% inhibitory concentration (IC50) turned out to be 0.42 µM.
As for `CCCCCCCCCCCCC(CC(C)(C)O)C1=CC(=O)OC1O` (centres unmarked) [Compound 10, 4-[1-(2-Hydroxy-2-methylpropyl)tridecyl]-5-hydroxy-2(5H)-furanone], the half-inhibitory concentration (IC50) was greater than 1 µM.
Still for that read-out and setting: the result for `CCCCCCCCCCCCC(C1=CC(=O)OC1O)C(C(=O)OC)C(=O)OC` (centres unmarked) [Compound 11, 4-[-(1,1-Bis(carbomethoxy)methyl)tridecyl]-5-hydroxy-2(5H)-furanone] reads 0.08 µM.
Take `CCCCCCCCCCCCC(CC(=O)O)C1=CC(=O)OC1O` (centres unmarked) [Compound 12, 4-[1-(Carboxymethyl)tridecyl]-5-hydroxy-2(5H)-furanone]: the IC50 turned out to be 0.13 µM.
Consider `CCCCCCCCCCCCC(CP(=O)(OCC)OCC)C1=CC(=O)OC1O` (centres unmarked) [Compound 13, 4-[1-(diethylphosphonyl)methyl]tridecyl-5-hydroxy-2(5H)-furanone], for which the IC50 worked out at 0.1 µM.
`CCCCCCCCCCCCC(=CC(=O)C(F)(F)F)C1=CC(=O)OC1O` (centres unmarked) [Compound 23, (E),(Z)-4-[(1-Dodecyl-3-oxo-4,4,4-trifluoro)-1-butenyl]-5-hydroxy-2(5H)-furanone]: the IC50 was 0.04 µM.
Regarding `CCCCCCCCCCCCC(=CP(=O)(OCC)OCC)C1=CC(=O)OC1O` (centres unmarked) [Compound 24, 4-[(1-Dodecyl-2-diethylphosphonyl)-1-ethenyl]-5-hydroxy-2(5H)-furanone], the IC50 was 0.08 µM.

Another experiment has as its system phosphoinositide-specific phospholipase C.
Experiment: not given
The note with it: Bennett et al, Molecular Pharmacology 32:587-593 (1987); cited from earlier work.
Consider `CC(=CCCC1=CCC(C2=CC(=O)OC2O)OC1O)CCC1=C(C)CCCC1(C)C` (centres unmarked) [Compound 1], for which the “inhibition of phosphoinositide-specific phospholipase C” value is recorded as “This activity has been reported for manoalide”.

System in the next experiment: not given
Experiment: not given
Particulars: U.S. Pat. No. 4,447,445; European Patent Application No. 0133376; cited from earlier work.
Regarding `CC(=CCCC1=CCC(C2=CC(=O)OC2O)OC1O)CCC1=C(C)CCCC1(C)C` (centres unmarked) [Compound 1], the biological activity result is “anti-inflammatory, immunosuppressive and analgesic properties”.
Consider `CC(=CCCC(C=O)=CCC(O)C1=CC(=O)OC1O)CCC1=C(C)CCCC1(C)C` (centres unmarked) [Compound 2], for which the biological activity result was “anti-inflammatory inflammatory activity”.
As to `CC(=CCCC(C=O)=CC=CC1=CC(=O)OC1O)CCC1=C(C)CCCC1(C)C` (centres unmarked) [Compound 3], the biological activity entry was “anti-inflammatory inflammatory activity”.
